According to patent US12678451B2, “Cannabinoid and omega fatty acid compositions and methods of using” (GreenWay Herbal Products, LLC, priority 2019, dated 2026):

Key:
[1] = test system: cytokines induced in mice by LPS; assay: Mouse LPS cytokine model, Example 6C Study 1, omega fatty acids with or without 0.5 mg/kg 1:1 CBD:CBDA; type: in vivo; conditions: 0.5 mg/kg (0.01 mg per mouse)
Procedure: (§1) A series of experiments using a mouse LPS cytokine animal model were performed. In the mouse LPS cytokine animal model, mice were injected with LPS, which induced the immune response shortly after the mice were injected with one of the potential anti-inflammatory compounds under evaluation (the “test compound”). The efficacy of the test compound was evaluated based on its ability to reduce expression levels of inflammatory cytokines that were elevated due to the immune response. The test compounds included a cannabinoid, an omega fatty acid, and a cannabinoid-omega fatty acid composition.
(§2) The mice were intraperitoneally injected with 0.1 mL of the test compound. One hour later, the mice were intraperitoneally injected with 0.1 mL of LPS in phosphate buffered saline (PBS). Four hours later, a heart puncture was performed and the blood was allowed to clot to generate serum. 0.1 mL of the serum was diluted 1:2 with PBS and stored at −80° C. The serum was then sent to a laboratory where a mouse cytokine array/chemokine array 31-plex (MD31) analysis was performed that analyzed the expression levels of the 32 cytokines/chemokines listed in Table 9, above.
(§3) For each considered test compound, the ability of the test compound to suppress each inflammatory cytokine was calculated by determining the percent suppression.
In this study, the effects of combining 1:1 CBD:CBDA with anti-inflammatory omega unsaturated fatty acids using the mouse LPS cytokine animal model were examined.
(§4) 32 female C57BL/6 mice that weighed approximately 20 g each were allowed to acclimate for one week with unlimited access to food and water. On the day of the study, the mice were weighed and split into eight groups of four mice each so that the average weight of each group was as close as possible to each other.
Because the purpose of this experiment was to evaluate the effectiveness of combining 1:1 CBD:CBDA and the anti-inflammatory omega fatty acids, only cytokines that could be suppressed by one of the anti-inflammatory agents used in this study were considered.

[2] = test system: cytokines induced in mice by LPS; assay: Mouse LPS cytokine model, Example 6D, ALA, DHA and EPA omega-3 samples; type: in vivo; conditions: 12.5 mg total omega fatty acids per mouse, DXM 0.01 mg per mouse
Procedure: as §1, §2, §3
36 female C57BL/6 mice that weighed approximately 20 g each were obtained and allowed to acclimate for one week after arrival with unlimited access to food and water. On the day of the study, the mice were weighed and split into eight groups of four mice each so that the average weight of each group was as close as possible to each other.
All of the omega fatty acid samples that were tested were diluted so the dose was 12.5 mg of total omega fatty acids per mouse. […] The omega fatty acids samples tested included: (1) pollock oil, 456 mg/mL omega unsaturated fatty acids. The pollock oil contained a mixture of anti-inflammatory omega-3, omega-7 and omega-9 unsaturated fatty acids. […] (2) Flaxseed oil, 656 mg/mL anti-inflammatory omega unsaturated fatty acids. The flaxseed oil contained a mixture of anti-inflammatory omega-3 and omega-9 unsaturated fatty acids. The omega-3 and omega-9 unsaturated fatty acids constituted 77.6% and […], respectively, of the anti-inflammatory omega fatty acids contained in the flaxseed oil. A 12.5 mg dose contained 9.7 mg of ALA in the triglyceride form. (3) Mono 2:1 DHA:EPA, 744 mg/mL omega-3 unsaturated fatty acids that were primarily DHA or EPA. A 12.5 mg dose contained 7.81 mg of DHA and 3.91 mg of EPA. The omega-3 unsaturated fatty acids were in the free mono form. […] A 12.5 mg dose contained 3.85 mg of DHA and 7.69 mg of EPA. The omega-3 unsaturated fatty acids were in the free mono form. (5) Tri 2:1 DHA:EPA, 678.9 mg/mL omega-3 unsaturated fatty acids that were primarily DHA or EPA. A 12.5 mg dose contained 7.88 mg of DHA and 3.94 mg of EPA. The omega-3 unsaturated fatty acids were in the triglyceride form. (6) Tri 1:2 DHA:EPA, 678.9 mg/mL omega-3 unsaturated fatty acids that were primarily DHA or EPA. A 12.5 mg dose contained 3.60 mg of DHA and 7.19 mg of EPA. The omega-3 unsaturated fatty acids were in the triglyceride form.

[3] = test system: cytokines induced in mice by LPS; assay: Mouse LPS cytokine model, Example 6A Study 3, 1:1 CBD:CBDA in MCT oil; type: in vivo; conditions: 0.5 mg/kg
Procedure: as §1, §2, §3, §4
The 1:1 CBD:CBDA test compounds were dosed at 5 mg/kg or 0.1 mg per 20 g mouse, 1.67 mg/kg or 0.033 mg per 20 g mouse, 0.5 mg/kg or 0.01 mg per 20 g mouse, 0.167 mg/kg or 0.0033 mg per 20 g mouse and 0.05 mg/kg or 0.001 mg per 20 g mouse. The test compounds were prepared as 1 mg/mL, 0.33 mg/mL, 0.1 mg/mL, 0.033 mg/mL and 0.01 mg/mL solutions in MCT oil for a 0.1 mL injection. […] The LPS was dosed at 0.1 mg/kg or 0.002 mg per 20 g mouse. The LPS was prepared as a 0.02 mg/mL solution in PBS for a 0.1 mL injection.

[4] = test system: cytokine levels in differentiated THP-1 cells treated with LPS; assay: THP-1 human cellular LPS cytokine assay, three independent experiments, total averaged suppression; conditions: Homo sapiens, THP-1, 4 h, read-out: % Cytokine Suppression (total averaged)
Procedure: Cells were seeded onto 24-, or 12-well plates and incubated for 48 hours to 72 hours to allow for differentiation. […] Supernatants were collected for quantification of human cytokine levels to assess the cytokine response. Cells remaining after the supernatant collection were tested to ensure they had at least 90% viability as determined by Alamar Blue assays. To conduct the Alamar Blue assays, supernatants were replaced with culture medium containing 1× Alamar Blue reagent and incubated overnight. Cell viability was assessed by measuring relative fluorescent units (RFU) on the SpectraMax M2e microplate reader (Molecular Devices Inc., Sunnyvale, Calif., USA) at Excitation 560 nm and Emission 590 nm. Controls included untreated cells with DMSO at the same concentration as the treated cells, LPS stimulated cells with DMSO at the same concentration as the treated cells and LPS stimulated cell with the various treatments. The levels of 42 of the most common human cytokines (Eve Technologies, Calgary, Canada Table 6) were determined by multi-plex analysis.
For this reason, the level of cytokine suppression was determined for each cytokine by each cannabinoid that was tested and the total averaged suppression for each cannabinoid was determined by dividing the total suppression by the number of the cytokines that were analyzed.

C[C@@H]1C[C@H]2[C@@H]3CCC4=CC(=O)C=C[C@]4(C)[C@@]3(F)[C@@H](O)C[C@]2(C)[C@@]1(O)C(=O)CO [Dexamethasone, dexamethasone]
AVERAGE SUPPRESSION [1]: 20.66%
IFNγ suppression [1]: −41.63%
IL-1β suppression [1]: 19.75%
IL-6 suppression [1]: 64.76%
IL-10 suppression [1]: 19.59%
IL-12 p70 suppression [1]: 10.64%
IL-12β p40 suppression [1]: 39.02%
IL-15 suppression [1]: 26.30%
IL-17 suppression [1]: 49.77%
IP-10 suppression [1]: 24.44%
KC suppression [1]: 40.63%
LIF suppression [1]: 29.55%
MCP-1 suppression [1]: 26.32%
MIG suppression [1]: 3.78%
MIP-1α suppression [1]: 26.86%
MIP-1β suppression [1]: 5.51%
MIP-2 suppression [1]: 34.16%
RANTES suppression [1]: −13.70%
TNF-α suppression [1]: 26.92%
AVERAGE SUPPRESSION [2]: 43.34%
Eotaxin suppression [2]: 24.14%
IL-6 suppression [2]: 76.02%
IL-10 suppression [2]: 47.30%
IP-10 suppression [2]: 41.65%
KC suppression [2]: 56.41%
MCP-1 suppression [2]: 54.99%
MIG suppression [2]: 25.46%
MIP-1α suppression [2]: 55.47%
MIP-1β suppression [2]: 48.33%
RANTES suppression [2]: 39.58%
AVERAGE SUPPRESSION ([2]; listed as DXM): 43.34%
AVERAGE SUPPRESSION ([2]; listed as dexamethasone): 43.34%
AVERAGE SUPPRESSION [3]: 34.65%
Eotaxin suppression [3]: 55.51%
IFNγ suppression [3]: 14.14%
IL-1β suppression [3]: 61.12%
IL-2 suppression [3]: −15.63%
IL-6 suppression [3]: 78.65%
IL-7 suppression [3]: 12.53%
IL-9 suppression [3]: 5.23%
IL-10 suppression [3]: 46.83%
IL-12 p70 suppression [3]: −46.46%
IL-12β p40 suppression [3]: 29.69%
IL-13 suppression [3]: 21.00%
IL-17 suppression [3]: 53.81%
IP-10 suppression [3]: 38.48%
KC suppression [3]: 86.96%
LIF suppression [3]: 35.14%
MCP-1 suppression [3]: 69.72%
MIG suppression [3]: 37.08%
MIP-1α suppression [3]: 48.38%
MIP-1β suppression [3]: 32.24%
MIP-2 suppression [3]: 41.28%
RANTES suppression [3]: 32.46%
TNF-α suppression [3]: 53.09%
VEGF suppression [3]: 66.07%
inhibition at 2 µM [4]: 51%
